According to the Kinase Knowledgebase extract (Sharma et al. 2016):

Molecular target: EGFR (UniProt P00533)
Sequence (P00533 whole entry, looked up): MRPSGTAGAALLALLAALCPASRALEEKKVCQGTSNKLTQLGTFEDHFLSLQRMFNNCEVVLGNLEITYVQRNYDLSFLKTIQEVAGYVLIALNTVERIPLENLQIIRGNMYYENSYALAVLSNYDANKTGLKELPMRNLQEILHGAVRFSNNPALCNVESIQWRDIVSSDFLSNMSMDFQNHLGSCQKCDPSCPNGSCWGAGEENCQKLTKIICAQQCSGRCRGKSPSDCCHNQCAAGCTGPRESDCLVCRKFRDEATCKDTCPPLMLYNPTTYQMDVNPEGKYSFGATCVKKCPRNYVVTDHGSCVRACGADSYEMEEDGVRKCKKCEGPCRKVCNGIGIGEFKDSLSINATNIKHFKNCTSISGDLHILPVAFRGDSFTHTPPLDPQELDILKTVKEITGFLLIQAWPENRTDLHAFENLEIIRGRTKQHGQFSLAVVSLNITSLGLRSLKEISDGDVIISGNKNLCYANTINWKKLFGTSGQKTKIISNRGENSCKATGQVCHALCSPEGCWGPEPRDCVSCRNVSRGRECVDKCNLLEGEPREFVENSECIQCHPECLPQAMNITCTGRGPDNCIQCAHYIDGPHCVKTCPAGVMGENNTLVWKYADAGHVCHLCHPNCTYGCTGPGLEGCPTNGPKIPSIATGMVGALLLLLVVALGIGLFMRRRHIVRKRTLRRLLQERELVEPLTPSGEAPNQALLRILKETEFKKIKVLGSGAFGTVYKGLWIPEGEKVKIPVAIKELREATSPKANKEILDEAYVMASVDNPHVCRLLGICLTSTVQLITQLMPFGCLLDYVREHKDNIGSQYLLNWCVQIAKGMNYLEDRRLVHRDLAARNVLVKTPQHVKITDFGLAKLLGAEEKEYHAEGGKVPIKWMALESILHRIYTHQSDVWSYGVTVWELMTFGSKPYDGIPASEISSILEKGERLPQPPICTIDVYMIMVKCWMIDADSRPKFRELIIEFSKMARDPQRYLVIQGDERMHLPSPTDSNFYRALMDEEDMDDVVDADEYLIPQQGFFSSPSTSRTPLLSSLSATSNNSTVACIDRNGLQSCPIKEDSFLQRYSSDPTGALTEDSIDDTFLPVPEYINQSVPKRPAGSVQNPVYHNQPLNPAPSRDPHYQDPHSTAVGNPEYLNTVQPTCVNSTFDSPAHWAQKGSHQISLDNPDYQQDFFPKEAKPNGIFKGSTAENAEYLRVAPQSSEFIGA

## COc1cc2c(NS(=O)(=O)c3ccc(Cl)cc3)ncnc2cc1OCCN1CCOCC1
  IC50: ≤ 1000 nM

## COc1cc2c(NS(=O)(=O)c3cccc4cccnc34)ncnc2cc1OCCN1CCOCC1
  IC50: ≤ 1000 nM

## COc1cc2c(NS(=O)(=O)c3ccccc3C)ncnc2cc1OC1CCN(C)CC1
  IC50: ≤ 1000 nM

## COc1cc2c(NS(=O)(=O)c3cccc4cccnc34)ncnc2cc1OC1CCN(C)CC1
  IC50: ≤ 1000 nM

## COc1cc2c(NS(=O)(=O)c3cccc(Br)c3)ncnc2cc1OCCN1CCCCC1
  IC50: ≤ 1000 nM

## COc1cc2c(NS(=O)(=O)Cc3ccccc3)ncnc2cc1OCCN1CCCCC1
  IC50: ≤ 1000 nM

## COc1cc2c(NS(=O)(=O)c3ccccc3Br)ncnc2cc1OCCCN1CCOCC1
  IC50: ≤ 1000 nM

## COc1cc2c(NS(=O)(=O)c3c(C)cc(C)cc3C)ncnc2cc1OCCN1CCOCC1
  IC50: ≤ 1000 nM

## CCN(CC)CCOc1cc2ncnc(NS(=O)(=O)c3ccccc3Br)c2cc1OC
  IC50: ≤ 1000 nM

## COc1cc2c(NS(=O)(=O)c3ccc(Sc4cccs4)s3)ncnc2cc1OCCCN(C)C
  IC50: ≤ 1000 nM

## COc1cc2c(NS(=O)(=O)c3ccccc3Cl)ncnc2cc1OCCCN(C)C
  IC50: ≤ 1000 nM

## COc1cc2c(NS(=O)(=O)c3ccc(C(C)(C)C)cc3)ncnc2cc1OCCN1CCOCC1
  IC50: ≤ 1000 nM

## COc1cc2c(NS(=O)(=O)c3ccc(Cl)cc3)ncnc2cc1OCCN1CCN(C)CC1
  IC50: ≤ 1000 nM

## CCN(CC)CCOc1cc2ncnc(NS(=O)(=O)c3ccc(C)cc3)c2cc1OC
  IC50: ≤ 1000 nM

## CCN(CC)CCOc1cc2ncnc(NS(=O)(=O)c3ccc(F)cc3)c2cc1OC
  IC50: ≤ 1000 nM

## COc1ccc(OC)c(S(=O)(=O)Nc2ncnc3cc(OCCN4CCN(C)CC4)c(OC)cc23)c1
  IC50: ≤ 1000 nM

## CCN(CC)CCOc1cc2ncnc(NS(C)(=O)=O)c2cc1OC
  IC50: ≤ 1000 nM

## COc1cc2c(NS(=O)(=O)Cc3ccccc3)ncnc2cc1OCCN1CCN(C)CC1
  IC50: ≤ 1000 nM

## COc1cc2c(NS(=O)(=O)c3ccc(Sc4cccs4)s3)ncnc2cc1OCCN1CCCCC1
  IC50: ≤ 1000 nM

## COc1cc2c(NS(=O)(=O)c3ccccc3C)ncnc2cc1OCCN1CCOCC1
  IC50: ≤ 1000 nM

## COc1cc2c(NS(=O)(=O)c3ccc(C)cc3)ncnc2cc1OCCCN1CCOCC1
  IC50: ≤ 1000 nM

## COc1cc2c(NS(=O)(=O)c3ccc(Sc4cccs4)s3)ncnc2cc1OCCN1CCOCC1
  IC50: ≤ 1000 nM

## COc1cc2c(NS(=O)(=O)c3cccc(Br)c3)ncnc2cc1OC1CCN(C)CC1
  IC50: ≤ 1000 nM

## COc1ccc(S(=O)(=O)Nc2ncnc3cc(OCCN4CCN(C)CC4)c(OC)cc23)cc1OC
  IC50: ≤ 1000 nM

## CCN(CC)CCOc1cc2ncnc(NS(=O)(=O)c3ccc(Cl)cc3)c2cc1OC
  IC50: ≤ 1000 nM

## COc1cc2c(NS(=O)(=O)c3ccccc3Cl)ncnc2cc1OCCN1CCCCC1
  IC50: ≤ 1000 nM

## COc1ccc(S(=O)(=O)Nc2ncnc3cc(OCCCN(C)C)c(OC)cc23)cc1
  IC50: ≤ 1000 nM

## COc1cc2c(NS(=O)(=O)c3ccc(F)cc3)ncnc2cc1OCCCN(C)C
  IC50: ≤ 1000 nM

## COc1cc2c(NS(=O)(=O)c3ccc4ccccc4c3)ncnc2cc1OC1CCN(C)CC1
  IC50: ≤ 1000 nM

## COc1cc2c(NS(=O)(=O)c3ccc4ccccc4c3)ncnc2cc1OCCN1CCN(C)CC1
  IC50: ≤ 1000 nM

## CCN(CC)CCOc1cc2ncnc(NS(=O)(=O)c3cc(Cl)c(Cl)s3)c2cc1OC
  IC50: ≤ 1000 nM

## COc1cc2c(NS(=O)(=O)c3ccc(Cl)s3)ncnc2cc1OC1CCN(C)CC1
  IC50: ≤ 1000 nM

## COc1cc2c(NS(=O)(=O)c3ccc(C(F)(F)F)cc3)ncnc2cc1OCCN1CCOCC1
  IC50: ≤ 1000 nM

## COc1cc2c(NS(=O)(=O)c3cccc(Br)c3)ncnc2cc1OCCN1CCN(C)CC1
  IC50: ≤ 1000 nM

## COc1cc2c(NS(=O)(=O)c3ccccc3C#N)ncnc2cc1OCCCN1CCOCC1
  IC50: ≤ 1000 nM

## COc1cc2c(NS(=O)(=O)c3ccc4ccccc4c3)ncnc2cc1OCCCN(C)C
  IC50: ≤ 1000 nM

## COc1cc2c(NS(=O)(=O)c3ccc(F)cc3)ncnc2cc1OCCCN1CCOCC1
  IC50: ≤ 1000 nM

## COc1cc2c(NS(=O)(=O)c3cccc4cccnc34)ncnc2cc1OCCN1CCCCC1
  IC50: ≤ 1000 nM

## COc1cc2c(NS(=O)(=O)c3cccc(Cl)c3)ncnc2cc1OCCN1CCOCC1
  IC50: ≤ 1000 nM

## COc1cc2c(NS(=O)(=O)c3ccc(Br)cc3)ncnc2cc1OCCCN(C)C
  IC50: ≤ 1000 nM

## COc1cc2c(NS(=O)(=O)c3ccc(F)cc3)ncnc2cc1OCCN1CCOCC1
  IC50: ≤ 1000 nM

## COc1cc2c(NS(=O)(=O)c3ccccc3Cl)ncnc2cc1OCCN1CCOCC1
  IC50: ≤ 1000 nM

## CCN(CC)CCOc1cc2ncnc(NS(=O)(=O)c3ccccc3Cl)c2cc1OC
  IC50: ≤ 1000 nM

## CCN(CC)CCOc1cc2ncnc(NS(=O)(=O)c3c(C)cc(C)cc3C)c2cc1OC
  IC50: ≤ 1000 nM

## COc1cc2c(NS(=O)(=O)c3ccc(F)cc3)ncnc2cc1OCCN1CCN(C)CC1
  IC50: ≤ 1000 nM

## COc1cc2c(NS(=O)(=O)c3ccc(OC(F)(F)F)cc3)ncnc2cc1OCCN1CCCCC1
  IC50: ≤ 1000 nM

## COc1cc2c(NS(=O)(=O)c3ccccc3C)ncnc2cc1OCCN1CCN(C)CC1
  IC50: ≤ 1000 nM

## COc1cc2c(NS(=O)(=O)Cc3ccccc3)ncnc2cc1OC1CCN(C)CC1
  IC50: ≤ 1000 nM

## COc1cc2c(NS(=O)(=O)c3ccccc3Cl)ncnc2cc1OCCCN1CCOCC1
  IC50: ≤ 1000 nM

## COc1ccc(OC)c(S(=O)(=O)Nc2ncnc3cc(OCCN4CCOCC4)c(OC)cc23)c1
  IC50: ≤ 1000 nM

## COc1ccc(S(=O)(=O)Nc2ncnc3cc(OCCN4CCOCC4)c(OC)cc23)cc1OC
  IC50: ≤ 1000 nM

## COc1cc2c(NS(=O)(=O)c3ccc(Cl)s3)ncnc2cc1OCCN1CCCCC1
  IC50: ≤ 1000 nM

## CCN(CC)CCOc1cc2ncnc(NS(=O)(=O)c3ccc(OC)c(OC)c3)c2cc1OC
  IC50: ≤ 1000 nM

## COc1ccc(S(=O)(=O)Nc2ncnc3cc(OCCN4CCCCC4)c(OC)cc23)cc1OC
  IC50: ≤ 1000 nM

## COc1cc2c(NS(=O)(=O)c3ccccc3Cl)ncnc2cc1OC1CCN(C)CC1
  IC50: ≤ 1000 nM

## COc1cc2c(NS(=O)(=O)c3cc(Cl)c(Cl)s3)ncnc2cc1OCCN1CCN(C)CC1
  IC50: ≤ 1000 nM

## COc1cc2c(NS(C)(=O)=O)ncnc2cc1OCCN1CCOCC1
  IC50: ≤ 1000 nM

## COc1cc2c(NS(=O)(=O)c3ccc(C)cc3)ncnc2cc1OC1CCN(C)CC1
  IC50: ≤ 1000 nM

## COc1cc2c(NS(=O)(=O)c3ccc(OC(F)(F)F)cc3)ncnc2cc1OCCCN(C)C
  IC50: ≤ 1000 nM

## COc1cc2c(NS(=O)(=O)c3cc(Cl)cc(Cl)c3)ncnc2cc1OCCN1CCN(C)CC1
  IC50: ≤ 1000 nM

## COc1cc2c(NS(=O)(=O)c3ccc(Sc4ccccc4)s3)ncnc2cc1OCCCN(C)C
  IC50: ≤ 1000 nM

## COc1cc2c(NS(=O)(=O)c3ccc(Cl)cc3)ncnc2cc1OCCCN(C)C
  IC50: ≤ 1000 nM

## CCN(CC)CCOc1cc2ncnc(NS(=O)(=O)c3ccc(C(C)(C)C)cc3)c2cc1OC
  IC50: ≤ 1000 nM

## COc1cc2c(NS(C)(=O)=O)ncnc2cc1OCCN1CCN(C)CC1
  IC50: ≤ 1000 nM

## COc1cc2c(NS(=O)(=O)c3ccc(Cl)s3)ncnc2cc1OCCCN(C)C
  IC50: ≤ 1000 nM

## COc1cc2c(NS(=O)(=O)c3ccc4ccccc4c3)ncnc2cc1OCCN1CCOCC1
  IC50: ≤ 1000 nM

## COc1cc2c(NS(=O)(=O)c3ccc(Cl)s3)ncnc2cc1OCCN1CCN(C)CC1
  IC50: ≤ 1000 nM

## COc1cc2c(NS(=O)(=O)c3c(C)noc3C)ncnc2cc1OCCN1CCOCC1
  IC50: ≤ 1000 nM

## COc1cc2c(NS(=O)(=O)c3ccccc3)ncnc2cc1OCCCN1CCOCC1
  IC50: ≤ 1000 nM

## COc1cc2c(NS(=O)(=O)c3ccc(Cl)cc3)ncnc2cc1OCCN1CCCCC1
  IC50: ≤ 1000 nM

## COc1cc2c(NS(=O)(=O)c3cccc4cccnc34)ncnc2cc1OCCCN(C)C
  IC50: ≤ 1000 nM

## COc1cc2c(NS(=O)(=O)c3ccc(Sc4ccccc4)s3)ncnc2cc1OC1CCN(C)CC1
  IC50: ≤ 1000 nM
